Laboratory results reported in ChEMBL document CHEMBL1134939, “A survey of cyclic replacements for the central diamide moiety of inhibitors of inosine monophosphate dehydrogenase” (Bioorg Med Chem Lett, 2002).

Assays:
[1] = molecular target: T1, Inosine-5'-monophosphate dehydrogenase 2 (Homo sapiens, UniProt P12268); test: Inhibitory concentration required against Inosine Monophosphate Dehydrogenase II (IMPDH II) was determined in vitro at a concentration 500 uM
[2] = molecular target: T1, Inosine-5'-monophosphate dehydrogenase 2; test: Inhibition of Inosine Monophosphate Dehydrogenase II (IMPDH II)
[3] = molecular target: T1, Inosine-5'-monophosphate dehydrogenase 2; test: Inhibitory concentration required against Inosine Monophosphate Dehydrogenase II (IMPDH II) was determined in vitro at a concentration 100 uM

| Structure (SMILES) | IC50 [2] | also measured |
| --- | --- | --- |
| COc1cc(Nc2cccc(-c3ccccc3)c2)ccc1-c1cnco1 | – | inhibition [1]: 30% |
| COc1cc(NC2=NCC(c3ccccc3)O2)ccc1-c1cnco1 (stereo unspecified) | 110 nM | – |
| COc1cc(Nc2nnc(-c3ccccc3)o2)ccc1-c1cnco1 | 44 nM | – |
| COc1cc(Nc2nc(-c3ccccc3)c[nH]2)ccc1-c1cnco1 | – | inhibition [3]: 7% |
| COc1cc(Nc2nnc(-c3ccccc3)s2)ccc1-c1cnco1 | 330 nM | – |
| COc1cc(-c2ccccc2)nc(Nc2ccc(-c3cnco3)c(OC)c2)n1 | 110 nM | – |
| COc1cc(Nc2nnc(-c3ccccc3)[nH]2)ccc1-c1cnco1 | 190 nM | – |

More lines, main results first:

| IC50 [2] | Structure (SMILES) | also measured |
| --- | --- | --- |
| 760 nM | COc1cc(Nc2cnc(-c3ccccc3)s2)ccc1-c1cnco1 | – |
| 120 nM | COc1cc(Nc2cc(-c3ccccc3)on2)ccc1-c1cnco1 | – |
| 300 nM | COc1cc(Nc2nc(-c3ccccc3)cs2)ccc1-c1cnco1 | – |
| 59 nM | COc1cc(Nc2noc(-c3ccccc3)n2)ccc1-c1cnco1 | – |
